Assay results as given in ChEMBL document CHEMBL1155949, “Blockade of glucocorticoid excess at the tissue level: inhibitors of 11beta-hydroxysteroid dehydrogenase type 1 as a therapy for type 2 diabetes” (J Med Chem, 2008).

Assays:
[1] = system: Corticosteroid 11-beta-dehydrogenase isozyme 2 (Homo sapiens); test: Inhibition of 11beta-HSD2 in human SW620 cells at 10 uM; conditions: SW-620
[2] = Inhibition of cynomolgus monkey 11beta-HSD1 mediated conversion of prednisone to prednisolone; parameters: species or system Macaca fascicularis

Row | SMILES | inhibition [1] [%] | Ki [2] [nM]
1 | O=C(Nc1cccc(C(=O)N2CCC[C@H]3CCCC[C@@H]32)c1)c1ccccc1 | 12 | 
2 | N#Cc1ccc(-c2ccc(S(=O)(=O)Nc3cccc(N)n3)cc2)cc1 |  | 2.3
